The values below are quoted from earlier work in PMC4474874, “Effect of JAK Inhibitors on Release of CXCL9, CXCL10 and CXCL11 from Human Airway Epithelial Cells” (PLoS ONE, 2015).

In data set [1] the test system is JAK2. On the set-up: method as in PMID 18094329. As to conditions: cellular assay; cited from earlier work.
In data set [2] the test system is cdk6. The arrangement: method as in PMID 18094329. The note with it: inactive or IC50 >30μM; read-out: IC50 against cdk6; cited from earlier work.
The test system of data set [3] is IKKi. The arrangement: method as in PMID 18094329. As to conditions: inactive or IC50 >30μM; read-out: IC50 against IKKi; cited from earlier work.
Data set [4] has as its system PAK4. The arrangement: method as in PMID 18094329. The note with it: inactive or IC50 >30μM; read-out: IC50 against PAK4; cited from earlier work.
Data set [5] deals with JAK1. On the set-up: method as in Coe et al., 25. As to conditions: ref Coe et al., 25, cited from earlier work.
For data set [6], the system named is TYK2. The arrangement: method as in Coe et al., 25. The note with it: ref Coe et al., 25, cited from earlier work.
Data set [7] relates to human T lymphocytes (JAK1/3). On the set-up: method as in Coe et al., 25. As to conditions: ref Coe et al., 25; read-out: IC50 IL-2-induced P-STAT5 human T lymphocytes (JAK1/3); cited from earlier work.
Data set [8] deals with MST4. The arrangement: method as in Coe et al., 25. The note with it: ATP at the Km; ref Coe et al., 25; cited from earlier work.

pIC50: −log10 of the molar value. Where two headings read alike, the source gives them in different places.

For `C[C@@H]1CCN(C(=O)N2CCCC2)C[C@@H]1N(C)c1ncnc2[nH]ccc12` [PF956980], the pIC50 in data set [1] was 6.73; in data set [2], below 4.52; in data set [3], below 4.52; in data set [4], below 4.52.
Take `CCc1cc(O)ccc1-c1ccc2c(-c3nc4ccccc4[nH]3)n[nH]c2c1` [PF1367550, 4-(3-(1H-benzo[d]imidazol-2-yl)-1H-indazol-6-yl)-3-ethylphenol]: the pIC50 was 9.40 in data set [5] (1mM ATP, read-out: IC50 JAK1 1 mM); 9.10 in data set [5] (ATP at the Km, read-out: IC50 JAK1 Km); 8.08 in data set [6] (1mM ATP, read-out: IC50 TYK2 1 mM); 9.10 in data set [6] (ATP at the Km, read-out: IC50 TYK2 Km); 7.96 in data set [7]; 6.16 in data set [8].
